{"source": "patent US20040126359A1", "about": "“Hedgehog” (priority 2001, published 2004)", "key": {"CD4+ T-cells [1]": {"tested_on": "CD4+ T-cells", "test": "T-cell proliferation assay (3H-TdR incorporation)", "format": "cell-based, mouse", "procedure": "Single cell suspensions from pooled C57BL/6 mouse spleens were applied to negative selection CD4^+ T-cell columns (R&D systems Europe Ltd, Abingdon, UK) as per manufacturers instructions. Purity was checked using FACS staining with an anti-CD4^FITC antibody and this ranged between 88-93%.\n(§1) CD4^+ T-cells were cultured in RPMI 1640 medium (Life Technologies, Paisley, UK) supplemented with 10% FCS (Life Technologies), 2 mM L-glutamine, (Sigma, Dorset, UK), 20 μg/ml penicillin/streptomycin (Life Technologies) and […] 2-mercaptoethanol (Sigma). Anti-CD3/28 antibody activation was carried out at 2 concentrations, namely ‘sub-optimal’ (anti-CD3 at 0.25 μg/ml and anti-CD28 at 0.1 μg/ml) and ‘optimal’ (anti-CD3 at 1 μg/ml and anti-CD28 at 5 μg/ml). Tissue culture plates (Corning Inc., NY, USA) were coated with the anti-CD3 antibody for 90 min at 37° C. prior to addition of the CD4^+ T-cells. Recombinant mouse Shh amino-terminal peptide (R&D systems Europe Ltd, Abingdon, UK) was added into cultures at a concentration of 500 ng/ml. 5E1 antibody was used at either 20 μg/ml or 50 μg/ml and the isotype control was used at 20 μg/ml. The concentrations used were based on results of dose response curves (data not shown).\nThe CD4^+ T-cells were cultured as above in 96-well plates with and without addition of exogenous Shh or 5E1. They were pulsed after 48 hr of anti-CD3/28 activation with 20 μl of ^3H-TdR (50 μCi/ml) (Amersham), harvested at 72 hr and read on a betaplate scintillation counter (Wallac UK, Milton Keynes, UK).\nPurified peripheral CD4^+ T-cells were cultured with and without the addition of the biologically active amino terminal Shh peptide. An initial titration curve established that 500 ng/ml was the optimal dose of the Shh peptide to enhance proliferation of peripheral CD4^+ T-cells (data not shown), and this concentration was used in all subsequent experiments. Shh was added to CD4^+ T-cells that were resting, maximally stimulated with anti-CD3 (1 μg/ml) and anti-CD28 (5 μg/ml) antibodies or sub-optimally activated with anti-CD3 (0.25 μg/ml) and anti-CD28 (0.1 μg/ml)."}, "CD4+ T-cells [2]": {"tested_on": "CD4+ T-cells", "test": "Cell cycle analysis (propidium iodide, Vindelov method)", "format": "cell-based, mouse", "procedure": "as §1\nThe CD4^+ T-cells were cultured as above in 48-well plates with and without addition of exogenous Shh or 5E1. At 72 hr post-activation, the cells were spun at 13,000 rpm for 7 min then re-suspended in citrate buffer. Cell cycle analysis was carried out using the Vindelov method (Vindelov et al, 1990). Briefly, the cells were trypsinized (Sigma) to expose the nucleus before being stained with propidium iodide (Sigma). Cell cycle analysis was then performed on an Epics© XL flow cytometer (Beckman Coulter UK Ltd, Bucks, UK). The machine counted 30,000 nuclei in each sample and the software analysed the % of cells in each stage of the cell cycle sub-G1, G1, S phase and G2/M. From these figures, the % of live cells (G1, S and G2/M) was calculated, and from this, the % of live cells in G1 and S/G2 phases.\nThe effect of Shh on CD4^+ T-cell proliferation was investigated further using cell cycle analysis to allow us to examine if Shh affected cell survival or promoted entry in the S/G2 proliferative phase of the cell cycle. As with the ^3H-TdR incorporation studies, this analysis was carried out on resting CD4^+ T-cells and those optimally and sub-optimally activated. Exogenous Shh was added at the time of (t=0) or 24 hr before (t=−24 hr) anti-CD3/28 antibody activation and the T-cells were analysed 72 hr later. In the case of resting CD4^+ T-cells, Shh peptide was added at t=0, and the cells were analysed at 24 hr, 48 hr and 72 hrs. The % cells distributed in sub-G1, G1, S and G2 phases of the cell cycle was analysed, and from this the % live cells in G1 and S/G2 phases was calculated."}, "CD4+ T-cells [3]": {"tested_on": "CD4+ T-cells", "test": "Taqman real time PCR of Shh, Ihh, HIP and Ptc expression in CD4+ T-cells (FIGS. 14, 15, 17)", "format": "cell-based", "procedure": "Expression in medium, in the presence of 50 ng/ml IL-10 and in the presence of 50 ng/ml IFN-γ was compared to expression in resting CD4+ T-cells;\nSimilar experiments were used to study the expression of Shh (FIG. 4) and Ptc (FIG. 5) in T-cells and the expression of components of the Hh signalling pathway in lymphoid tissues (FIG. 6). FIG. 14 illustrates the results of an RT-PCR analysis of Shh, Ihh, Hip and Ptc expression. Activation of T-cells induced a sustained and marked (approximately 80-fold) increase in Shh mRNA, peaking at 44 and 72 hours. It lead to a downregulation of Ptc."}, "[4]": {"tested_on": "mouse spleen cells and purified CD4+ T-cells", "test": "Survival in culture by Trypan blue staining", "format": "cell-based", "details": "no activation; Shh 10 and 100 ng/ml; 4 day time frame", "procedure": "Survival was measured by Trypan blue staining of dead and alive cells in culture;\nCells cultured in medium without Shh were used as controls;"}, "[5]": {"details": "optimally activated, Shh 24 hr prior to activation"}, "[6]": {"details": "sub-optimally activated, Shh peptide at t=0"}, "[7]": {"details": "Shh added to activated T-cell cultures"}}}
{"substance": "Shh peptide: Recombinant mouse Shh amino-terminal peptide (R&D systems); biologically active N-terminal Sonic hedgehog fragment", "values": [{"measurement": "optimal dose to enhance proliferation of peripheral CD4+ T-cells", "setting": "CD4+ T-cells [1]; initial titration curve (data not shown)", "result": 500, "unit": "ng/mL"}, {"measurement": "level of proliferation (3H-TdR incorporation)", "setting": "CD4+ T-cells [1]; maximally stimulated (anti-CD3 1 μg/ml, anti-CD28 5 μg/ml), Shh peptide 500 ng/ml added at t=-24 hr or t=0", "result": "no significant difference"}, {"measurement": "degree of proliferation", "setting": "CD4+ T-cells [1]; resting CD4+ T-cells, Shh peptide 500 ng/ml", "result": "No significant difference"}, {"measurement": "increase in proliferation, range", "setting": "CD4+ T-cells [1]; sub-optimal activation, Shh peptide 500 ng/ml 24 hr prior to activation", "result": "16-63%"}, {"measurement": "increase in proliferation, mean", "setting": "CD4+ T-cells [1]; sub-optimal activation, Shh peptide 500 ng/ml 24 hr prior to activation, n=3, p<0.04", "result": 46, "unit": "%"}, {"measurement": "increase in CD4+ T-cell proliferation, mean", "setting": "CD4+ T-cells [1]; sub-optimal activation, Shh peptide 500 ng/ml at t=0, 72 hr, p<0.01", "result": 101.6, "unit": "%"}, {"measurement": "increase in CD4+ T-cell proliferation, range", "setting": "CD4+ T-cells [1]; sub-optimal anti-CD3 0.25 μg/ml, anti-CD28 0.1 μg/ml, Shh peptide 500 ng/ml at t=0, 72 hr", "result": "76.2-128%"}, {"measurement": "effect on cell cycle progression, direct addition on its own", "setting": "CD4+ T-cells [2]; FIG. 13, Shh 10 and 500 ng/ml, relative to the anti-Shh effect", "result": "slight effect in the opposite direction"}, {"measurement": "% increase in live cells in S/G2 phase, range", "setting": "CD4+ T-cells [2]; optimally activated (anti-CD3 1 μg/ml, anti-CD28 5 μg/ml), Shh at t=0, 72 hr", "result": "9%-144%"}, {"measurement": "% of live cells with and without Shh", "setting": "CD4+ T-cells [2]; [5]", "result": "very similar"}, {"measurement": "increase in cells in S/G2 phase, range", "setting": "CD4+ T-cells [2]; [5]", "result": "53.1%-97.1%"}, {"measurement": "increase in cells in S/G2 phase, mean", "setting": "CD4+ T-cells [2]; optimally activated, Shh 24 hr prior to activation, n=3, p<0.01", "result": 71.5, "unit": "%"}, {"measurement": "% of live cells with and without Shh", "setting": "CD4+ T-cells [2]; optimally activated, Shh at t=0", "result": "very similar"}, {"measurement": "% increase in live cells in S/G2 phase, mean", "setting": "CD4+ T-cells [2]; optimally activated, Shh at t=0, n=3, not statistically significant", "result": 63.7, "unit": "%"}, {"measurement": "difference in % of cells in S/G2 phase", "setting": "CD4+ T-cells [2]; resting CD4+ T-cells, Shh 500 ng/ml", "result": "negligible"}, {"measurement": "effect on cell survival", "setting": "CD4+ T-cells [2]; resting CD4+ T-cells, Shh 500 ng/ml, 24, 48, 72 hr", "result": "minimal effects"}, {"measurement": "increase in % of live cells entering S/G2 phase, range", "setting": "CD4+ T-cells [2]; sub-optimally activated, Shh peptide 24 hr prior to activation", "result": "34.6%-110%"}, {"measurement": "increase in % of live cells entering S/G2 phase, mean", "setting": "CD4+ T-cells [2]; sub-optimally activated, Shh peptide 24 hr prior to activation, n=3, p<0.03", "result": 61.5, "unit": "%"}, {"measurement": "% of live CD4+ T-cells", "setting": "CD4+ T-cells [2]; sub-optimally activated, Shh peptide 24 hr prior to activation, p<0.02", "result": "increase"}, {"measurement": "% increase in live cells in S/G2 phase, range", "setting": "CD4+ T-cells [2]; [6]", "result": "27.8%-77.8%"}, {"measurement": "% live cells with and without Shh", "setting": "CD4+ T-cells [2]; [6]", "result": "similar"}, {"measurement": "% increase in live cells in S/G2 phase, mean", "setting": "CD4+ T-cells [2]; sub-optimally activated, Shh peptide at t=0, n=3, p<0.02", "result": 55.8, "unit": "%"}, {"measurement": "Hip expression", "setting": "CD4+ T-cells [3]; [7]", "result": "up-regulated"}, {"measurement": "Ihh expression", "setting": "CD4+ T-cells [3]; [7]", "result": "down-"}, {"measurement": "effect on Ptc downregulation", "setting": "CD4+ T-cells [3]; activated T-cells, Shh addition", "result": "does not appear to affect"}, {"measurement": "Shh mRNA expression", "setting": "CD4+ T-cells [3]; activated T-cells, Shh addition, 24 hours, 40 cycles of PCR (limit of assay)", "result": "no signal is detected"}, {"measurement": "survival in culture", "setting": "[4]", "result": "enhances their survival"}]}
